Data as given in the NIST ThermoML archive (doi:10.1021/je700140j).

Test: xn = mol fraction of the nth substance listed
Settings: for surface tension liquid-gas: Ring tensiometer; for mass density / viscosity: 100.8 kPa, Liquid

OCCc1ccccc1 [2-phenylethanol] + OCc1ccccc1
Settings | mass density, 298.15 K [kg/m3] | mass density, 308.15 K [kg/m3] | mass density, 318.15 K [kg/m3] | surface tension liquid-gas, 298.15 K [mN/m] | surface tension liquid-gas, 308.15 K [mN/m] | surface tension liquid-gas, 318.15 K [mN/m] | viscosity, 298.15 K [mPa·s] | viscosity, 308.15 K [mPa·s] | viscosity, 318.15 K [mPa·s]
x2 = 0 | 1016.2 | 1008.63 | 1000.98 | 39.43 | 38.93 | 38.35 | 11.4 | 7.518 | 5.232
x2 = 0.05 | 1018.11 | 1010.83 | 1003.42 | – | – | – | 11.07 | 7.322 | 5.116
x2 = 0.1 | 1020.14 | 1013.11 | 1005.98 | 39.2 | 38.7 | 38.11 | 10.73 | 7.132 | 5
x2 = 0.15 | 1022.33 | 1015.32 | 1008.23 | – | – | – | 10.41 | 6.94 | 4.883
x2 = 0.2 | 1024.45 | 1017.42 | 1010.36 | 39 | 38.48 | 37.86 | 10.08 | 6.752 | 4.77
x2 = 0.25 | 1026.56 | 1019.52 | 1012.41 | – | – | – | 9.759 | 6.564 | 4.655
x2 = 0.3 | 1028.52 | 1021.44 | 1014.25 | 38.83 | 38.28 | 37.63 | 9.44 | 6.372 | 4.542
x2 = 0.35 | 1030.34 | 1023.25 | 1015.99 | – | – | – | 9.125 | 6.186 | 4.43
x2 = 0.4 | 1032.11 | 1024.95 | 1017.65 | 38.7 | 38.1 | 37.41 | 8.816 | 5.999 | 4.32
x2 = 0.45 | 1033.8 | 1026.61 | 1019.28 | – | – | – | 8.506 | 5.815 | 4.21
x2 = 0.5 | 1035.25 | 1028.06 | 1020.74 | 38.6 | 37.95 | 37.21 | 8.203 | 5.636 | 4.101
x2 = 0.55 | 1036.33 | 1029.16 | 1021.87 | – | – | – | 7.913 | 5.467 | 3.997
x2 = 0.6 | 1037.32 | 1030.12 | 1022.84 | 38.6 | 37.9 | 37.12 | 7.628 | 5.302 | 3.897
x2 = 0.65 | 1038.01 | 1030.89 | 1023.63 | – | – | – | 7.351 | 5.14 | 3.797
x2 = 0.7 | 1038.62 | 1031.56 | 1024.26 | 38.6 | 37.85 | 37.02 | 7.081 | 4.979 | 3.697
x2 = 0.75 | 1039.06 | 1031.9 | 1024.63 | – | – | – | 6.813 | 4.821 | 3.599
x2 = 0.8 | 1039.43 | 1032.23 | 1024.86 | 38.6 | 37.8 | 36.92 | 6.554 | 4.666 | 3.5
x2 = 0.85 | 1039.72 | 1032.44 | 1024.99 | – | – | – | 6.296 | 4.519 | 3.402
x2 = 0.9 | 1040 | 1032.65 | 1025.18 | 38.6 | 37.76 | 36.84 | 6.036 | 4.374 | 3.306
x2 = 0.95 | 1040.59 | 1033.06 | 1025.43 | – | – | – | 5.787 | 4.232 | 3.213

OCCc1ccccc1 [2-phenylethanol] + CC(C)O
Settings | mass density, 298.15 K [kg/m3] | mass density, 308.15 K [kg/m3] | mass density, 318.15 K [kg/m3] | surface tension liquid-gas, 298.15 K [mN/m] | surface tension liquid-gas, 308.15 K [mN/m] | surface tension liquid-gas, 318.15 K [mN/m] | viscosity, 298.15 K [mPa·s] | viscosity, 308.15 K [mPa·s] | viscosity, 318.15 K [mPa·s]
x2 = 0 | 1016.2 | 1008.63 | 1000.98 | 39.43 | 38.93 | 38.35 | 11.4 | 7.518 | 5.232
x2 = 0.05 | 1009.41 | 1002.31 | 994.22 | 38.1 | 37.7 | 37.2 | 10.66 | 7.05 | 4.953
x2 = 0.1 | 1002.07 | 994.92 | 986.78 | 36.9 | 36.58 | 36.13 | 9.933 | 6.594 | 4.645
x2 = 0.15 | 994.41 | 986.76 | 978.99 | 35.8 | 35.47 | 35.05 | 9.256 | 6.148 | 4.366
x2 = 0.2 | 986.36 | 978.65 | 970.82 | 34.7 | 34.38 | 33.97 | 8.618 | 5.726 | 4.103
x2 = 0.25 | 977.95 | 970.19 | 962.28 | 33.63 | 33.28 | 32.88 | 8 | 5.341 | 3.85
x2 = 0.3 | 969.14 | 961.31 | 953.36 | 32.61 | 32.23 | 31.8 | 7.407 | 4.969 | 3.6
x2 = 0.35 | 959.91 | 952.04 | 943.99 | 31.6 | 31.19 | 30.75 | 6.858 | 4.621 | 3.362
x2 = 0.4 | 950.21 | 942.3 | 934.2 | 30.6 | 30.17 | 29.7 | 6.35 | 4.286 | 3.132
x2 = 0.45 | 940.02 | 932.05 | 923.92 | 29.6 | 29.16 | 28.68 | 5.862 | 3.964 | 2.912
x2 = 0.5 | 929.31 | 921.29 | 913.06 | 28.62 | 28.16 | 27.68 | 5.412 | 3.67 | 2.713
x2 = 0.55 | 918.04 | 909.98 | 901.7 | 27.65 | 27.17 | 26.68 | 4.978 | 3.389 | 2.524
x2 = 0.6 | 906.21 | 898.08 | 889.7 | 26.7 | 26.2 | 25.7 | 4.571 | 3.124 | 2.342
x2 = 0.65 | 893.62 | 885.47 | 877.03 | 25.8 | 25.3 | 24.83 | 4.173 | 2.876 | 2.162
x2 = 0.7 | 880.35 | 872.12 | 863.6 | 24.98 | 24.48 | 24 | 3.793 | 2.634 | 1.989
x2 = 0.75 | 866.25 | 857.98 | 849.39 | 24.2 | 23.68 | 23.2 | 3.438 | 2.407 | 1.823
x2 = 0.8 | 851.34 | 842.99 | 834.3 | 23.45 | 22.9 | 22.45 | 3.101 | 2.201 | 1.665
x2 = 0.85 | 835.47 | 827.04 | 818.29 | 22.75 | 22.2 | 21.7 | 2.808 | 2.009 | 1.526
x2 = 0.9 | 818.57 | 810.09 | 801.28 | 22.1 | 21.5 | 20.97 | 2.541 | 1.859 | 1.415
x2 = 0.95 | 800.54 | 792 | 783.08 | 21.5 | 20.8 | 20.18 | 2.281 | 1.693 | 1.298
